Results: patent US10683326B2, “Crystalline salt forms” (Stealth BioTherapeutics Corp., priority 2016, dated 2020)
Counter-ions that a name gives are not always drawn. Where a SMILES comes first, the peptide text is derived from it. [ ]: non-standard residue; d: D form. Dmt = Cc1cc(O)cc(C)c1C[C@H](N)C(=O)O

Assays:
[1] = counterion acid; cited from earlier work
[2] = counterion acid; cited from earlier work; remark: listed apart in the source
[3] = Dynamic Vapor Sorption (DVS); assay type: physicochemical; conditions: for change in mass (DVS): between 20-90% RH
Experimental: Approximately 10 mg of sample was placed into a mesh vapor sorption balance pan and loaded into a DVS-1 dynamic vapor sorption balance by Surface Measurement Systems. The sample was subjected to a ramping profile from 40-90% relative humidity (RH) at 10% increments, maintaining the sample at each step until a stable weight had been achieved (99.5% step completion). After completion of the sorption cycle, the sample was dried using the same procedure to 0% RH and then a second sorption cycle back to 40% RH. The weight changes during the sorption/desorption cycles were plotted, allowing the hygroscopic nature of the sample to be determined. XRPD analysis was then carried out on the remaining solid.

[4] = Salt disproportionation studies (slurry in deionized water, pH and XRPD); assay type: physicochemical; conditions: 20° C.
Experimental: The scaled-up tosylate and fumarate salts were subjected to salt disproportionation studies at ambient temperature. The following observations and results were obtained during these disproportionation studies: • After stirring the tosylate salt at 20° C. in deionized water for 30 min, pH=2.58.

[5] = 7-day stability testing (40° C./75% RH, 80° C., ambient temperature and light), XRPD and HPLC; assay type: physicochemical; conditions: 7 days
Experimental: (§1) Approximately 30 mg of the tosylate and fumarate salts were subjected to 7-day stability testing under the following conditions: • 40° C./75% RH • 80° C. • Ambient temperature and light After 7 days under the stated conditions, XRPD and HPLC analysis was carried out on the resultant solid material. Salt Disproportionation Studies
as §1, with “light •” for “light”, “Hydration” for “Salt Disproportionation”
The scaled-up tosylate and fumarate salts were subjected to 7-day stability testing at 40° C./75% RH, 80° C. and ambient temperature and light.

physchem = assay: physchem
Experimental: 25 mL of 0.2 M potassium hydrogen phthalate solution and 2.50 mL of 0.2 M sodium hydroxide solution were diluted to 100 mL using deionized water. The pH was adjusted as required, using either potassium hydrogen phthalate or sodium hydroxide solution.
25 mL of 0.2 M potassium phosphate monobasic solution and 11.20 mL of 0.2 M sodium hydroxide solution were diluted to 100 mL using deionized water. The pH was adjusted as required, using either potassium phosphate monobasic or sodium hydroxide solution.

[6] = Hydration studies in IPA/water at 3 water activities, XRPD; assay type: physicochemical
[7] = Primary salt screen: stability testing of crystalline hits for 72 hours at 40° C./75% RH, post-stability XRPD and HPLC
Experimental: The primary salt screen was carried out on 35 mg scale in a glovebag under nitrogen using >3 equivalents of the counterions in the appropriate solvent. The contents of the vials were temperature cycled from 30 to 5° C. Any solids were isolated and analyzed by XRFD. • Approximately 35 mg of received material was weighed into each vial, in a glovebag under nitrogen. If amorphous material or counterion isolated, material was returned to vial and solids re-dissolved through addition of an appropriate solvent. Further temperature cycling was then employed, followed by anti-solvent addition and evaporation if required. Solids, if present, were isolated by centrifugation and analyzed by XRPD.

[8] = 40° C./75% RH, listed as fumarate
[9] = 40° C./75% RH, listed as tosylate

## O=C(O)c1ccc2ccccc2c1O [1-Hydroxy-2-naphthoic]
[1]
  LogP: 3.29

## C[C@H](CCC(=O)O)[C@H]1CC[C@H]2[C@@H]3CC[C@@H]4C[C@H](O)CC[C@]4(C)[C@H]3C[C@H](O)[C@]12C [Deoxycholic acid]
[2]
  pKa 1: 4.76

## O=C(O)/C=C\C(=O)O [Maleic]
[1]
  LogP: −0.01

## N[C@@H](CCC(=O)O)C(=O)O [L-Glutamic acid]
[1]
  LogP: −1.43

## CCCCCCCCCCCC(=O)O [Lauric]
[2]
  pKa 1: 4.90
[1]
  LogP: 4.6

## O=C[C@H](O)[C@@H](O)[C@H](O)[C@H](O)C(=O)O [D-Glucuronic acid]
[1]
  LogP: −1.49

## O=C(O)CCCCC(=O)O [Adipic]
[1]
  LogP: 0.08

## Cc1cc(O)cc(C)c1C[C@H](NC(=O)[C@H](N)CCCNC(=N)N)C(=O)N[C@@H](CCCCN)C(=O)N[C@@H](Cc1ccccc1)C(N)=O [Fumarate Pattern 4] (H-[dR][Dmt]KF-NH2)
[3]; listed as fumarate salt
  change in mass (DVS): ca. 11.5%
  Post-DVS XRPD analysis: remained Pattern 4
  hygroscopicity by DVS analysis: hygroscopic
[4]; 30 min, listed as fumarate salt
  pH of slurry: 3.50
[4]; 20 h, listed as fumarate salt
  XRPD analysis of the post-slurry material: changed to a new pattern (designated Pattern 5)
  pH of slurry: 3.48
[5]; [8]
  Purity by HPLC: 97.5%
  decrease in purity after stability testing: ca. 2.4%
[5]; 80° C.
  Post-stability XRPD analysis: loss of crystallinity
  decrease in purity after stability testing: ca. 17%
[5]; 80° C., listed as Fumarate
  Purity by HPLC: 83.0%
[5]; ambient temperature and light
  Purity by HPLC: 99.6%
[5]; lower temperatures: 40° C./75% RH or ambient conditions
  Post-stability XRPD analysis: unchanged
physchem; buffer pH 1.2, 20° C., 24 h, listed as Fumarate
  Solid Form isolated after solubility study: Fumaric acid
physchem; buffer pH 1.2, 20° C., 24 h, listed as fumarate salt
  Solid Form isolated after solubility study: fumaric acid only
physchem; buffer pH 4.5, 20° C., 24 h, listed as fumarate salt
  Solid Form isolated after solubility study: Pattern 5
physchem; buffer pH 6.8, 20° C., 24 h, listed as fumarate salt
  Solid Form isolated after solubility study: No solid was isolated
[6]; aw=0.368 and 0.608, 20° C., 24 h
  XRPD analysis of the isolated solids after hydration studies: Pattern 3
[6]; aw=0.911, 20° C., 24 h
  XRPD analysis of the isolated solids after hydration studies: Pattern 5

## O=C(O)C(=O)O [Oxalic]
[1]
  LogP: −1.19

## Cc1ccc(S(=O)(=O)O)cc1 [p-Toluenesulfonic acid]
[1]
  LogP: 0.93

## CCS(=O)(=O)O [Ethanesulfonic acid]
[1]
  LogP: −1.36

## CC(C)CCC[C@@H](C)[C@H]1CC[C@H]2[C@@H]3CC=C4C[C@@H](OS(=O)(=O)O)CC[C@]4(C)[C@H]3CC[C@]12C [Cholesteryl sulfate]
[1]
  LogP: 4.45

## O=C(O)C[C@H](O)C(=O)O [L-Malic]
[1]
  LogP: −1.26

## Cc1cc(O)cc(C)c1C[C@H](NC(=O)[C@H](N)CCCNC(=N)N)C(=O)N[C@@H](CCCCN)C(=O)N[C@@H](Cc1ccccc1)C(N)=O [Tosylate Pattern 1] (H-[dR][Dmt]KF-NH2)
[3]; listed as tosylate salt
  change in mass (DVS): ca. 1.3%
  Post-DVS XRPD analysis: remained Pattern 1
  hygroscopicity by DVS analysis: slightly hygroscopic
[4]; 30 min, listed as tosylate salt
  pH of slurry: 2.58
[4]; 20 h, listed as tosylate salt
  XRPD analysis of the post-slurry material: no change to the input Pattern 1 material
  pH of slurry: 2.53
[5]; 40° C./75% RH, 80° C. and ambient temperature and light
  Post-stability XRPD analysis: unchanged
[5]; [9]
  Purity by HPLC: 98.5%
  decrease in purity after stability testing: ca. 1.3%
[5]; 80° C., listed as Tosylate
  Purity by HPLC: 99.4%
physchem; aqueous buffer pH 1.2, pH 1.2, Concentration by HPLC (thermodynamic solubility), buffer pH 1.2, 20° C., 24 h
  solubility thermodynamic at 24 h: 23.8 mg/mL
physchem; aqueous buffers pH 1.2, 4.5 and 6.8
  solubility at 24 h: ~25 mg/mL
physchem; buffer pH 1.2, 20° C., 24 h, listed as Tosylate
  Solid Form isolated after solubility study: Pattern 1
physchem; buffer pH 4.5, 20° C., 24 h
  Solid Form isolated after solubility study: Pattern 1
physchem; buffer pH 6.8, 20° C., 24 h
  Solid Form isolated after solubility study: Pattern 1
physchem; each buffer solution (pH 1.2, 4.5, 6.8), 20° C., 24 h
  XRPD analysis of the isolated solids after thermodynamic solubility studies: unchanged
[7]; 40° C./75% RH, 72 hours
  XRPD analysis of samples after stability testing: improved in crystallinity
  purity by HPLC analysis of samples after stability testing: 80.6%
[7]; 72 hours at 40° C./75% RH
  Purity by HPLC (post-stability): 80.6
[7]; 72 hours at 40° C./75% RH, P1 = Pattern 1
  Same XRPD, post-stability: yes
[6]; aw=0.368, 0.608 and 0.911, 20° C., 25 h
  XRPD analysis of the isolated solids after hydration studies: unchanged
